In ChEMBL document CHEMBL3217749, “Design and synthesis of novel pyranone-based insulin sensitizers exhibiting in vivo hepatoprotective activity” (2013):
Calls of active or inactive are those of the source. No cut-off for these calls is given here.

Columns and labels:
3T3-L1 [1] = assay: Inhibition of chronic insulin-stimulated insulin resistance in differentiated mouse 3T3L1 cells assessed as 2-deoxy-D-[3H]-glucose uptake after 24 hrs by scintillation counting analysis; format: functional, cell-based
3T3-L1 [2] = assay: Induction of insulin-stimulated 2-deoxy-D-[3H]-glucose uptake in differentiated mouse 3T3L1 cells at 10 uM after 24 hrs by scintillation counting analysis; format: functional, cell-based
[3] = Upregulation of aP2 protein expression in differentiated mouse 3T3L1 cells after 7 days by western blot analysis; format: functional, cell-based; settings: 3T3-L1
[4] = Upregulation of FAS protein expression in differentiated mouse 3T3L1 cells after 7 days by western blot analysis; format: functional, cell-based; settings: 3T3-L1
Mus musculus [5] = assay: Hepatoprotective activity against thioacetamide-induced liver toxicity in Swiss albino mouse assessed as protection in serum AST activity at 20 mg/kg administered for 7 days started 1 day after thioacetamide challenge measured on day 8; format: functional
Mus musculus [6] = assay: Hepatoprotective activity against thioacetamide-induced liver toxicity in Swiss albino mouse assessed as protection in serum ALP activity at 20 mg/kg administered for 7 days started 1 day after thioacetamide challenge measured on day 8; format: functional
Mus musculus [7] = assay: Hepatoprotective activity against thioacetamide-induced liver toxicity in Swiss albino mouse assessed as protection in serum total bilirubin activity at 20 mg/kg administered for 7 days started 1 day after thioacetamide challenge measured on day 8; format: functional
Mus musculus [8] = assay: Hepatoprotective activity against thioacetamide-induced liver toxicity in Swiss albino mouse assessed as protection against histological damage at 20 mg/kg administered for 7 days started 1 day after thioacetamide challenge measured on day 8 by hematoxylin-eosin staining; format: functional, organism-based; design: dose 20 mg/kg
Mus musculus [9] = assay: Hepatoprotective activity against thioacetamide-induced liver toxicity in Swiss albino mouse assessed as protection in serum ALT activity at 20 mg/kg administered for 7 days started 1 day after thioacetamide challenge measured on day 8; format: functional
3T3-L1 [10] = assay: Induction of adipogenesis in mouse 3T3L1 cells assessed as lipid accumulation at 10 uM on day 8 by oil Red O staining; format: functional, cell-based
Mus musculus [11] = assay: Hepatoprotective activity against thioacetamide-induced liver toxicity in Swiss albino mouse assessed as protection in serum AST activity at 20 mg/kg, po administered for 7 days started 1 day after thioacetamide challenge measured on day 8; format: functional, organism-based; design: dose 20 mg/kg
Mus musculus [12] = assay: Hepatoprotective activity against thioacetamide-induced liver toxicity in Swiss albino mouse assessed as protection in serum ALP activity at 20 mg/kg, po administered for 7 days started 1 day after thioacetamide challenge measured on day 8; format: functional, organism-based; design: dose 20 mg/kg
Mus musculus [13] = assay: Hepatoprotective activity against thioacetamide-induced liver toxicity in Swiss albino mouse assessed as protection in serum ALT activity at 20 mg/kg, po administered for 7 days started 1 day after thioacetamide challenge measured on day 8; format: functional, organism-based; design: dose 20 mg/kg
Mus musculus [14] = assay: Hepatoprotective activity against thioacetamide-induced liver toxicity in Swiss albino mouse assessed as protection in serum total bilirubin activity at 20 mg/kg, po administered for 7 days started 1 day after thioacetamide challenge measured on day 8; format: functional, organism-based; design: dose 20 mg/kg
Mus musculus [15] = assay: Hepatoprotective activity against thioacetamide-induced liver toxicity in Swiss albino mouse assessed as protection against histological damage at 20 mg/kg, po administered for 7 days started 1 day after thioacetamide challenge measured on day 8 by hematoxylin-eosin staining; format: functional, organism-based; design: dose 20 mg/kg

Compound	Inhibition activity (active/not active) (3T3-L1 [1])	Activity (3T3-L1 [2])	Activity [3]	Activity [4]	Activity (Mus musculus [5])	Activity (Mus musculus [6])	Activity (Mus musculus [7])	Activity (Mus musculus [8])	Activity (Mus musculus [9])	Activity (3T3-L1 [10])	Activity (Mus musculus [11])	Activity (Mus musculus [12])	Activity (Mus musculus [13])	Activity (Mus musculus [14])	Activity (Mus musculus [15])
CN(CCOc1ccc(CC2SC(=O)NC2=O)cc1)c1ccccn1 (centres undefined)	Active	Active	Active	Active											
CN(CCBr)c1cc(-c2ccc(Cl)cc2)oc(=O)c1C#N	Active	Active	inactive	Active	87%	100%	100%	Active	100%	Active					
SILYMARIN											95%	100%	93%	100%	Active
COc1ccc(-c2cc(N(C)CCN3C(=O)SC(Cc4cccc(O)c4)C3=O)c(C#N)c(=O)o2)cc1 (centres undefined)	inactive	Active	Active	Active	75%	100%	100%	Active	89%	Active					
COc1ccc(-c2cc(N(C)CCOC(=O)Cc3ccc(O)cc3)c(C#N)c(=O)o2)cc1	inactive	Active	Active	Active	60%	100%	100%	Active	92%	Active					
